pIC50: −log10 of the molar value. Non-standard residues stand in square brackets, D forms with d. Residues, ends and D or L forms follow the SMILES beside them. *: point of attachment. Acetyl(1-adamantyl) = O=C(CC12CC3CC(CC(C3)C1)C2)*; NH((S)CH(Me)CH2NMe2) = C[C@@H](CN(C)C)N*; dGly(nOct) = CCCCCCCC[C@@H](N)C(=O)O; Gly(octyl) = CCCCCCCC[C@H](N)C(=O)O; X5 = CN(C)[C@H]1CCCC[C@@H]1N*; X8 = C[C@@H](CN1CCCCC1)N*; Hexanoyl = CCCCCC(=O)*; X1 = CN(C)C1CCC(N*)CC1; Aib = CC(C)(N)C(=O)O; X6 = CCCN(CCC)CCN*; X9 = c1ccn(CCN*)c1; βAla = NCCC(=O)O
Tests used:
[1] = test system: Trypanosoma cruzi trypomastigote forms (Tulahuen strain); test: Intracellular Trypanosoma cruzi assay in L6-cells, beta-galactosidase/CPRG readout; type: cell-based; conditions: In vitro inhibition, read-out: T.cruzi.
Procedure, shortened: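 L6 rat myoblasts infected with Tulahuen C2C4 LacZ T. cruzi; after incubation, CPRG/Nonidet substrate added and colour developed 2–6 h. Absorbance at 540 nm; IC50 calculated; triplicate tests.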

[2] = test system: Trypanosoma brucei rhodesiense (STIB 900 strain); test: Alamar Blue assay against Trypanosoma brucei rhodesiense grown in axenic medium; type: cell-based; conditions: In vitro inhibition, read-out: T.b.rhod.
Procedure, shortened: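 T. b. rhodesiense STIB 900 cultured in axenic medium and exposed to samples in an Alamar Blue viability assay, run in triplicate. IC50 calculated from the readout; melarsoprol served as reference drug.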

[3] = test system: Axenically grown Leishmania donovani amastigotes (strain MHOM/ET/67/L82); test: Axenic Leishmania donovani amastigote resazurin assay; type: cell-based; conditions: In vitro inhibition, read-out: L.don. ax
Procedure, shortened: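 Strain MHOM/ET/67/L82 amastigotes grown axenically and tested in triplicate by resazurin assay. Plates developed 2-4 hours, fluorescence read at 536 nm excitation/588 nm emission and expressed as percentage of negative control.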

[4] = test system: intracellular Leishmania donovani (L.don. InMac); test: Intracellular Leishmania donovani assay (L.don. InMac); type: cell-based; conditions: In vitro inhibition
Source text: (§1) Tests were done in triplicate.

[5] = Cytotoxicity assay on L6-cells (Alamar Blue); conditions: rat, Cytotox L6, Cytotoxicity against rat myoblast cells (L6)
[6] = test system: Plasmodium falciparum; test: 3H-hypoxanthine incorporation assay against Plasmodium falciparum; type: cell-based; conditions: In vitro inhibition, read-out: P.falc NF5
Procedure: as §1
IC50 values were calculated by linear interpolation.

SMILES | pIC50 [1] | pIC50 [2] | pIC50 [3] | pIC50 [4] | IC50 at 70 h [5] [nM] | pIC50 [6]
CCCCCCCC[C@H](NC(=O)[C@@H]1CCCN1C(=O)CC12CC3CC(CC(C3)C1)C2)C(=O)N[C@@H](CC(C)C)C(=O)NC(C)(C)C(=O)N[C@@H](CC(C)C)C(=O)N[C@@H](CC(C)C)C(=O)NC(C)(C)C(=O)NC(C)(C)C(=O)NCCC(=O)N[C@@H](C)CN(C)C [Compound 5771, (2S)-2-{[(2S)-1-[2-(adamantan-1-yl)acetyl]pyrrolidin-2-yl]formamido}-N-[(1S)-1-[(1-{[(1S)-1-{[(1S)-1-{[1-({1-[(2-{[(2S)-1-(dimethylamino)propan-2-yl]carbamoyl}ethyl)carbamoyl]-1-methylethyl}carbamoyl)-1-methylethyl]carbamoyl}-3-methylbutyl]carbamoyl}-3-methylbutyl]carbamoyl}-1-methylethyl)carbamoyl]-3-methylbutyl]decanamide] ({Acetyl(1-adamantyl)}-P[Gly(octyl)]L[Aib]LL[Aib][Aib][βAla]-{NH((S)CH(Me)CH2NMe2)}) | 7.38 | 8.16 | 9.10 | 7.23 | 113 | 9.10
CCCCCCCC[C@@H](NC(=O)[C@H]1CCCN1C(=O)CCCCC)C(=O)N[C@H](CC(C)C)C(=O)NC(C)(C)C(=O)N[C@H](CC(C)C)C(=O)N[C@H](CC(C)C)C(=O)NC(C)(C)C(=O)NC(C)(C)C(=O)NCCC(=O)N[C@@H](C)CN(C)C [Compound 5849, (2R)-N-[(1R)-1-[(1-{[(1R)-1-{[(1R)-1-{[1-({1-[(2-{[(2S)-1-(dimethylamino)propan-2-yl]carbamoyl}ethyl)carbamoyl]-1-methylethyl}carbamoyl)-1-methylethyl]carbamoyl}-3-methylbutyl]carbamoyl}-3-methylbutyl]carbamoyl}-1-methylethyl)carbamoyl]-3-methylbutyl]-2-{[(2R)-1-hexanoylpyrrolidin-2-yl]formamido}decanamide] (Hexanoyl-[dP][dGly(nOct)][dL][Aib][dL][dL][Aib][Aib][βAla]-{NH((S)CH(Me)CH2NMe2)}) | 6.59 | 7.25 | 8.46 | 7.17 | 1070 | 8.12
CCCCCCCC[C@H](NC(=O)[C@@H]1CCCN1C(=O)CCCCC)C(=O)N[C@@H](CC(C)C)C(=O)NC(C)(C)C(=O)N[C@H](CC(C)C)C(=O)N[C@H](CC(C)C)C(=O)NC(C)(C)C(=O)NC(C)(C)C(=O)NCCC(=O)N[C@@H](C)CN(C)C [Compound 5850, (2S)-N-[(1S)-1-[(1-{[(1R)-1-{[(1R)-1-{[1-({1-[(2-{[(2S)-1-(dimethylamino)propan-2-yl]carbamoyl}ethyl)carbamoyl]-1-methylethyl}carbamoyl)-1-methylethyl]carbamoyl}-3-methylbutyl]carbamoyl}-3-methylbutyl]carbamoyl}-1-methylethyl)carbamoyl]-3-methylbutyl]-2-{[(2S)-1-hexanoylpyrrolidin-2-yl]formamido}decanamide] (Hexanoyl-P[Gly(octyl)]L[Aib][dL][dL][Aib][Aib][βAla]-{NH((S)CH(Me)CH2NMe2)}) | 6.50 | 7.73 | 8.06 | 7.15 | 820 | 9.05
CCCCCCCC[C@@H](NC(=O)[C@H]1CCCN1C(=O)CCCCC)C(=O)N[C@H](CC(C)C)C(=O)NC(C)(C)C(=O)N[C@@H](CC(C)C)C(=O)N[C@@H](CC(C)C)C(=O)NC(C)(C)C(=O)NC(C)(C)C(=O)NCCC(=O)N[C@@H](C)CN(C)C [Compound 5851, (2R)-N-[(1R)-1-[(1-{[(1S)-1-{[(1S)-1-{[1-({1-[(2-{[(2S)-1-(dimethylamino)propan-2-yl]carbamoyl}ethyl)carbamoyl]-1-methylethyl}carbamoyl)-1-methylethyl]carbamoyl}-3-methylbutyl]carbamoyl}-3-methylbutyl]carbamoyl}-1-methylethyl)carbamoyl]-3-methylbutyl]-2-{[(2R)-1-hexanoylpyrrolidin-2-yl]formamido}decanamide] (Hexanoyl-[dP][dGly(nOct)][dL][Aib]LL[Aib][Aib][βAla]-{NH((S)CH(Me)CH2NMe2)}) | 5.95 | 6.78 | 6.84 | 6.62 | 1210 | 7.29
CCCCCCCC[C@H](NC(=O)[C@@H]1CCCN1C(=O)CCCCC)C(=O)N[C@@H](CC(C)C)C(=O)NC(C)(C)C(=O)N[C@@H](CC(C)C)C(=O)N[C@@H](CC(C)C)C(=O)NC(C)(C)C(=O)NC(C)(C)C(=O)NCCC(=O)NC1CCC(N(C)C)CC1 (stereo partly drawn) [Compound 5881, (2S)-N-[(1S)-1-[(1-{[(1S)-1-{[(1S)-1-{[1-({1-[(2-{[4-(dimethylamino)cyclohexyl]carbamoyl}ethyl)carbamoyl]-1-methylethyl}carbamoyl)-1-methylethyl]carbamoyl}-3-methylbutyl]carbamoyl}-3-methylbutyl]carbamoyl}-1-methylethyl)carbamoyl]-3-methylbutyl]-2-{[(2S)-1-hexanoylpyrrolidin-2-yl]formamido}decanamide] (Hexanoyl-P[Gly(octyl)]L[Aib]LL[Aib][Aib][βAla]-X1) | 7.36 | 4.35 | 9.15 | 4.37 | 592 | 9.70
CCCCCCCC[C@H](NC(=O)[C@@H]1CCCN1C(=O)CCCCC)C(=O)N[C@@H](CC(C)C)C(=O)NC(C)(C)C(=O)N[C@@H](CC(C)C)C(=O)N[C@@H](CC(C)C)C(=O)NC(C)(C)C(=O)NC(C)(C)C(=O)NCCC(=O)N[C@H]1CCCC[C@@H]1N(C)C [Compound 5883, (2S)-N-[(1S)-1-[(1-{[(1S)-1-{[(1S)-1-{[1-({1-[(2-{[(1S,2S)-2-(dimethylamino)cyclohexyl]carbamoyl}ethyl)carbamoyl]-1-methylethyl}carbamoyl)-1-methylethyl]carbamoyl}-3-methylbutyl]carbamoyl}-3-methylbutyl]carbamoyl}-1-methylethyl)carbamoyl]-3-methylbutyl]-2-{[(2S)-1-hexanoylpyrrolidin-2-yl]formamido}decanamide] (Hexanoyl-P[Gly(octyl)]L[Aib]LL[Aib][Aib][βAla]-X5) | 6.34 | 4.38 | 4.70 | 6.88 | 1480 | 4.60
CCCCCCCC[C@H](NC(=O)[C@@H]1CCCN1C(=O)CCCCC)C(=O)N[C@@H](CC(C)C)C(=O)NC(C)(C)C(=O)N[C@@H](CC(C)C)C(=O)N[C@@H](CC(C)C)C(=O)NC(C)(C)C(=O)NC(C)(C)C(=O)NCCC(=O)N[C@@H](C)CN1CCCCC1 [Compound 5886, (2S)-2-{[(2S)-1-hexanoylpyrrolidin-2-yl]formamido}-N-[(1S)-3-methyl-1-[(1-methyl-1-{[(1S)-3-methyl-1-{[(1S)-3-methyl-1-{[1-methyl-1-({1-methyl-1-[(2-{[(2S)-1-(piperidin-1-yl)propan-2-yl]carbamoyl}ethyl)carbamoyl]ethyl}carbamoyl)ethyl]carbamoyl}butyl]carbamoyl}butyl]carbamoyl}ethyl)carbamoyl]butyl]decanamide] (Hexanoyl-P[Gly(octyl)]L[Aib]LL[Aib][Aib][βAla]-X8) | 5.37 | 6.30 | 6.72 | 6.22 | 938 | 4.44
CCCCCCCC[C@H](NC(=O)[C@@H]1CCCN1C(=O)CCCCC)C(=O)N[C@@H](CC(C)C)C(=O)NC(C)(C)C(=O)N[C@@H](CC(C)C)C(=O)N[C@@H](CC(C)C)C(=O)NC(C)(C)C(=O)NC(C)(C)C(=O)NCCC(=O)NCCn1cccc1 [Compound 5887, (2S)-2-{[(2S)-1-hexanoylpyrrolidin-2-yl]formamido}-N-[(1S)-3-methyl-1-[(1-methyl-1-{[(1S)-3-methyl-1-{[(1S)-3-methyl-1-{[1-methyl-1-({1-methyl-1-[(2-{[2-(1H-pyrrol-1-yl)ethyl]carbamoyl}ethyl)carbamoyl]ethyl}carbamoyl)ethyl]carbamoyl}butyl]carbamoyl}butyl]carbamoyl}ethyl)carbamoyl]butyl]decanamide] (Hexanoyl-P[Gly(octyl)]L[Aib]LL[Aib][Aib][βAla]-X9) | 6.58 | 4.33 | 4.45 | 7.38 | 479 | 4.37
CCCCCCCC[C@H](NC(=O)[C@@H]1CCCN1C(=O)CCCCC)C(=O)N[C@@H](CC(C)C)C(=O)NC(C)(C)C(=O)N[C@@H](CC(C)C)C(=O)N[C@@H](CC(C)C)C(=O)NC(C)(C)C(=O)NC(C)(C)C(=O)NCCC(=O)NCCN(CCC)CCC [Compound 5888, (2S)-N-[(1S)-1-[(1-{[(1S)-1-{[(1S)-1-{[1-({1-[(2-{[2-(dipropylamino)ethyl]carbamoyl}ethyl)carbamoyl]-1-methylethyl}carbamoyl)-1-methylethyl]carbamoyl}-3-methylbutyl]carbamoyl}-3-methylbutyl]carbamoyl}-1-methylethyl)carbamoyl]-3-methylbutyl]-2-{[(2S)-1-hexanoylpyrrolidin-2-yl]formamido}decanamide] (Hexanoyl-P[Gly(octyl)]L[Aib]LL[Aib][Aib][βAla]-X6) | 7.43 | 4.75 | 4.64 | 7.83 | 446 | 4.44

Reference: patent EP3345917A1, “ANTIPROTOZOAL COMPOUNDS” (Bacoba AG, priority 2017, dated 2018)
